This passage reports IC50 results from patent publication US10414754B2, “Indolizine compounds, a process for their preparation and pharmaceutical compositions containing them” (LES LABORATOIRES SERVIER, priority 2013, dated 2019).

One experiment concerns the target T1, Bcl-2 protein (histag-Bcl-2, UniProtKB P10415) (Homo sapiens, UniProt P10415).
T1 construct: His tag
Nature of the experiment: Inhibition of Bcl-2 by the fluorescence polarisation technique. The class given is binding. The settings on record: fluorescence polarisation, 2 hours incubation; read-out: IC50 (nM) Bcl-2 FP. The method, boiled down: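 Fluorescence polarisation competition: His-tagged human Bcl-2 (2.50×10^−8 M final) was mixed with fluorescein-labelled peptide (1.00×10^−8 M final) and increasing compound concentrations. Buffer was 10 mM Hepes, 150 mM NaCl, 0.05% Tween20, pH 7.4. Polarisation was read after 2 h.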

For experiment [1], the system named is RS4;11 leukaemia tumour line. Nature of the experiment: In vitro cytotoxicity (MTT) on RS4;11. The experiment is classed as cell-based. The settings on record: Homo sapiens; RS4;11 cells, 48 hours exposure. On the procedure: The cytotoxicity studies were carried out on the RS4;11 leukaemia tumour line.
The cells are distributed onto microplates and exposed to the test compounds for 48 hours.
The cell viability is then quantified by a colorimetric assay, the Microculture Tetrazolium Assay (Cancer Res., 1987, 47, 939-942).

Structures can show the parent of a compound that is named as a salt.

T1 sequence (P10415 whole entry): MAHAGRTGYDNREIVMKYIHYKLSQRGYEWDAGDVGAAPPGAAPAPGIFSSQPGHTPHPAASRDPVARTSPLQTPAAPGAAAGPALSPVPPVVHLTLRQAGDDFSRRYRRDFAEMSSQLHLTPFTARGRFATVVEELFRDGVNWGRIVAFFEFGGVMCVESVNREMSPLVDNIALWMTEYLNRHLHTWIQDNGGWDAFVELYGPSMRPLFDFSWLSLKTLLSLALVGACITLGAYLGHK

For the compound `C[C@@H]1Cc2ccccc2CN1C(=O)c1cc2c(cc1-c1cc(C(=O)N(c3ccc(O)cc3)c3cnn(C)c3)c3n1CCCC3)OCCO2` [Example 48, N-(4-Hydroxyphenyl)-3-(7-{[(3R)-3-methyl-3,4-dihydroisoquinolin-2(1H)-yl]carbonyl}-2,3-dihydro-1,4-benzodioxin-6-yl)-N-(1-methyl-1H-pyrazol-4-yl)-5,6,7,8-tetrahydroindolizine-1-carboxamide], the IC50 worked out at 3.6 nM on Bcl-2 protein and 24.7 nM in experiment [1].

For the compound `C[C@@H]1Cc2ccccc2CN1C(=O)c1ccc(Cl)cc1-c1cc(C(=O)N(c2ccncc2)c2ccc(O)cc2)c2ccccn12` [Example 49, 3-(5-Chloro-2-{[(3R)-3-methyl-3,4-dihydroisoquinolin-2(1H)-yl]-carbonyl}phenyl)-N-(4-hydroxyphenyl)-N-(pyridin-4-yl)indolizine-1-carboxamide hydrochloride], the figures for the half-inhibitory concentration (IC50) (at Bcl-2 protein; in experiment [1]) were 3.7 nM and 84.7 nM, respectively.

Turning to `CC[C@@H]1Cc2ccccc2CN1C(=O)c1ccc(Cl)cc1-c1cc(C(=O)N(c2ccc(O)cc2)c2cnc3c(ccn3C)c2)c2ccccn12` [Example 50, 3-(5-Chloro-2-{[(3R)-3-ethyl-3,4-dihydroisoquinolin-2(1H)-yl]-carbonyl}phenyl)-N-(4-hydroxyphenyl)-N-(1-methyl-1H-pyrrolo[2,3-b]pyridin-5-yl)indolizine-1-carboxamide], the figures for the half-inhibitory concentration (IC50) (at Bcl-2 protein; in experiment [1]) were 2.2 nM and 28.2 nM, respectively.

As to `C[C@@H]1Cc2ccccc2CN1C(=O)c1cc2c(cc1-c1cc(C(=O)N(c3ccc(O)cc3)c3ccn4ccnc4c3)c3ccccn13)OCO2` [Example 51, N-(4-Hydroxyphenyl)-N-(imidazo[1,2-a]pyridin-7-yl)-3-(6-{[(3R)-3-methyl-3,4-dihydroisoquinolin-2(1H)-yl]carbonyl}-1,3-benzodioxol-5-yl)indolizine-1-carboxamide hydrochloride], the IC50 at Bcl-2 protein amounted to 4.8 nM; in experiment [1], 68.8 nM.

Consider `C[C@@H]1Cc2ccccc2CN1C(=O)c1ccccc1-c1cc(C(=O)N(c2ccc(O)cc2)c2cnc3c(ccn3C)c2)c2ccccn12` [Example 52, N-(4-Hydroxyphenyl)-3-(2-{[(3R)-3-methyl-3,4-dihydroisoquinolin-2(1H)-yl]carbonyl}phenyl)-N-(1-methyl-1H-pyrrolo[2,3-b]pyridin-5-yl)indolizine-1-carboxamide], for which the 50% inhibitory concentration (IC50) on Bcl-2 protein came to 7.9 nM; in experiment [1], 20.9 nM.

As for `Cc1cn2ccc(N(C(=O)c3cc(-c4cc5c(cc4C(=O)N4Cc6ccccc6C[C@H]4C)OCO5)n4ccccc34)c3ccc(O)cc3)cc2n1` [Example 53, N-(4-Hydroxyphenyl)-3-(6-{[(3R)-3-methyl-3,4-dihydroisoquinolin-2(1H)-yl]carbonyl}-1,3-benzodioxol-5-yl)-N-(2-methylimidazo[1,2-a]pyridin-7-yl)indolizine-1-carboxamide hydrochloride], the figures for the concentration for half-maximal inhibition (IC50) (at Bcl-2 protein; in experiment [1]) were 5.4 nM and 70.9 nM, respectively.

Regarding `Cc1ccc(N(C(=O)c2cc(-c3cc4c(cc3C(=O)N3Cc5ccccc5C[C@H]3C)OCO4)n3ccccc23)c2ccc(O)cc2)cn1` [Example 54, N-(4-Hydroxyphenyl)-3-(6-{[(3R)-3-methyl-3,4-dihydroisoquinolin-2(1H)-yl]carbonyl}-1,3-benzodioxol-5-yl)-N-(6-methylpyridin-3-yl)indolizine-1-carboxamide hydrochloride], the IC50 at Bcl-2 protein worked out at 6.6 nM; in experiment [1], 45 nM.

As for `C[C@@H]1Cc2ccccc2CN1C(=O)c1cc2c(cc1-c1cc(C(=O)N(c3ccc(O)cc3)c3cncc(F)c3)c3ccccn13)OCO2` [Example 55, N-(5-Fluoropyridin-3-yl)-N-(4-hydroxyphenyl)-3-(6-{[(3R)-3-methyl-3,4-dihydroisoquinolin-2(1H)-yl]carbonyl}-1,3-benzodioxol-5-yl)indolizine-1-carboxamide], the half-maximal inhibitory concentration (IC50) on Bcl-2 protein is 5.5 nM; in experiment [1], 22.8 nM.

Regarding `COc1cc(N(C(=O)c2cc(-c3cc4c(cc3C(=O)N3Cc5ccccc5C[C@H]3C)OCO4)n3ccccc23)c2ccc(O)cc2)ccn1` [Example 56, N-(4-Hydroxyphenyl)-N-(2-methoxypyridin-4-yl)-3-(6-{[(3R)-3-methyl-3,4-dihydroisoquinolin-2(1H)-yl]carbonyl}-1,3-benzodioxol-5-yl)indolizine-1-carboxamide], the values for the concentration for half-maximal inhibition (IC50) (on Bcl-2 protein; in experiment [1]) were 4.7 nM and 36.7 nM, respectively.

As for `O=C(c1cc2c(cc1-c1cc(C(=O)N(c3ccccc3)c3ccc(O)cc3)c3n1CCCC3)OCO2)N1CCc2ccccc2C1` [Example 57, 3-[6-(3,4-Dihydroisoquinolin-2(1H)-ylcarbonyl)-1,3-benzodioxol-5-yl]-N-(4-hydroxyphenyl)-N-phenyl-5,6,7,8-tetrahydroindolizine-1-carboxamide], the concentration for half-maximal inhibition (IC50) on Bcl-2 protein amounted to 21.2 nM; in experiment [1], 282 nM.

`CC(C)c1cc(N(C(=O)c2cc(-c3cc4c(cc3C(=O)N3Cc5ccccc5C[C@H]3C)OCO4)n3ccccc23)c2ccc(O)cc2)ccn1` [Example 58, N-(4-Hydroxyphenyl)-3-(6-{[(3R)-3-methyl-3,4-dihydroisoquinolin-2(1H)-yl]carbonyl}-1,3-benzodioxol-5-yl)-N-[2-(propan-2-yl)pyridin-4-yl)indolizine-1-carboxamide hydrochloride]: the IC50 on Bcl-2 protein is 6.4 nM; in experiment [1], 68.5 nM.

Consider `C[C@@H]1Cc2ccccc2CN1C(=O)c1cc2c(cc1-c1cc(C(=O)N(c3ccc(O)cc3)c3cnc4ccnn4c3)c3ccccn13)OCO2` [Example 59, N-(4-Hydroxyphenyl)-3-(6-{[(3R)-3-methyl-3,4-dihydroisoquinolin-2(1H)-yl]carbonyl}-1,3-benzodiaxol-5-yl)-N-(pyrazolo[1,5-a]pyrimidin-6-yl)indolizine-1-carboxamide], for which the half-maximal inhibitory concentration (IC50) came to 4 nM on Bcl-2 protein and 21.2 nM in experiment [1].

`C[C@@H]1Cc2ccccc2CN1C(=O)c1ccc(F)cc1-c1cc(C(=O)N(c2ccc(O)cc2)c2cnn(C)c2)c2ccccn12` [Example 60, 3-(5-Fluoro-2-{[(3R)-3-methyl-3,4-dihydroisoquinolin-2(1H)-yl]-carbonyl}phenyl)-N-(4-hydroxyphenyl)-N-(1-methyl-1H-pyrazol-4-yl)indolizine-1-carboxamide]: the concentration for half-maximal inhibition (IC50) on Bcl-2 protein is 5.4 nM; in experiment [1] it was 60.3 nM.

`C[C@@H]1Cc2ccccc2CN1C(=O)c1ccc(F)cc1-c1cc(C(=O)N(c2ccc(O)cc2)c2cnn(C)c2)c2n1CCCC2` [Example 61, 3-(5-Fluoro-2-{[(3R)-3-methyl-3,4-dihydroisoquinolin-2(1H)-yl]-carbonyl}phenyl)-N-(4-hydroxyphenyl)-N-(1-methyl-1H-pyrazol-4-yl)-5,6,7,8-tetrahydroindolizine-1-carboxamide]: the IC50 on Bcl-2 protein worked out at 7 nM; in experiment [1], 61.3 nM.

For the compound `C[C@@H]1Cc2ccccc2CN1C(=O)c1ccc(F)cc1-c1cc(C(=O)N(c2ccncc2)c2ccc(O)cc2)c2ccccn12` [Example 62, 3-(5-Fluoro-2-{[(3R)-3-methyl-3,4-dihydroisoquinolin-2(1H)-yl]-carbonyl}phenyl)-N-(4-hydroxyphenyl)-N-(pyridin-4-yl)indolizine-1-carboxamide], the half-inhibitory concentration (IC50) at Bcl-2 protein was 5.6 nM; in experiment [1], 96.6 nM.

As to `C[C@@H]1Cc2ccccc2CN1C(=O)c1ccc(F)cc1-c1cc(C(=O)N(c2ccc(O)cc2)c2cnc3c(ccn3C)c2)c2ccccn12` [Example 63, 3-(5-Fluoro-2-{[(3R)-3-methyl-3,4-dihydroisoquinolin-2(1H)-yl]-carbonyl}phenyl)-N-(4-hydroxyphenyl)-N-(1-methyl-1H-pyrrolo[2,3-b]pyridin-5-yl)indolizine-1-carboxamide], the concentration for half-maximal inhibition (IC50) was 6.2 nM at Bcl-2 protein and 25.4 nM in experiment [1].

In the case of `C[C@@H]1Cc2ccccc2CN1C(=O)c1ccc(F)cc1-c1cc(C(=O)N(c2ccncc2)c2ccc(O)cc2)c2n1CCCC2` [Example 64, 3-(5-Fluoro-2-{[(3R)-3-methyl-3,4-dihydroisoquinolin-2(1H)-yl]-carbonyl}phenyl)-N-(4-hydroxyphenyl)-N-(pyridin-4-yl)-5,6,7,8-tetrahydroindolizine-1-carboxamide], the half-inhibitory concentration (IC50) on Bcl-2 protein turned out to be 7.8 nM; in experiment [1] it was 282 nM.

Consider `C[C@@H]1Cc2ccccc2CN1C(=O)c1ccc(F)cc1-c1cc(C(=O)N(c2ccc(O)cc2)c2cnc3c(ccn3C)c2)c2n1CCCC2` [Example 65, 3-(5-Fluoro-2-{[(3R)-3-methyl-3,4-dihydroisoquinolin-2(1H)-yl]-carbonyl}phenyl)-N-(4-hydroxyphenyl)-N-(1-methyl-1H-pyrrolo[2,3-b]pyridin-5-yl)-5,6,7,8-tetrahydroindolizine-1-carboxamide], for which the IC50 at Bcl-2 protein was found to be 5.3 nM; in experiment [1], 62.8 nM.

Take `C[C@@H]1Cc2ccccc2CN1C(=O)c1cc2c(cc1-c1cc(C(=O)N(c3ccc(O)cc3)c3cnc4ncnn4c3)c3ccccn13)OCO2` [Example 66, N-(4-Hydroxyphenyl)-3-(6-{[(3R)-3-methyl-3,4-dihydroisoquinolin-2(1H)-yl]carbonyl}-1,3-benzodioxol-5-yl)-N-([1,2,4]triazolo[1,5-a]pyrimidin-6-yl)-indolizine-1-carboxamide]: the IC50 worked out at 4.7 nM on Bcl-2 protein and 42 nM in experiment [1].

`C[C@@H]1Cc2ccccc2CN1C(=O)c1ccccc1-c1cc(C(=O)N(c2ccncc2)c2ccc(O)cc2)c2ccccn12` [Example 68, N-(4-Hydroxyphenyl)-3-(2-{[(3R)-3-methyl-3,4-dihydroisoquinolin-2(1H)-yl]carbonyl}phenyl)-N-(pyridin-4-yl)indolizine-1-carboxamide hydrochloride]: the results for the IC50 (at Bcl-2 protein; in experiment [1]) were 8.3 nM and 82.4 nM, respectively.
